doi:10.1101/2024.08.13.607785v1 (biorxiv, 2024)

What was measured:
Parameters in all cases: species or system mixed lysate of K562, MV4-11, THP-1, NCI-H1155
[1] = molecular target: T1, Tyrosine-protein kinase Tec ; TEC ; P42680 (Homo sapiens, UniProt P42680); details: binder
T1 sequence (P42680 1-631): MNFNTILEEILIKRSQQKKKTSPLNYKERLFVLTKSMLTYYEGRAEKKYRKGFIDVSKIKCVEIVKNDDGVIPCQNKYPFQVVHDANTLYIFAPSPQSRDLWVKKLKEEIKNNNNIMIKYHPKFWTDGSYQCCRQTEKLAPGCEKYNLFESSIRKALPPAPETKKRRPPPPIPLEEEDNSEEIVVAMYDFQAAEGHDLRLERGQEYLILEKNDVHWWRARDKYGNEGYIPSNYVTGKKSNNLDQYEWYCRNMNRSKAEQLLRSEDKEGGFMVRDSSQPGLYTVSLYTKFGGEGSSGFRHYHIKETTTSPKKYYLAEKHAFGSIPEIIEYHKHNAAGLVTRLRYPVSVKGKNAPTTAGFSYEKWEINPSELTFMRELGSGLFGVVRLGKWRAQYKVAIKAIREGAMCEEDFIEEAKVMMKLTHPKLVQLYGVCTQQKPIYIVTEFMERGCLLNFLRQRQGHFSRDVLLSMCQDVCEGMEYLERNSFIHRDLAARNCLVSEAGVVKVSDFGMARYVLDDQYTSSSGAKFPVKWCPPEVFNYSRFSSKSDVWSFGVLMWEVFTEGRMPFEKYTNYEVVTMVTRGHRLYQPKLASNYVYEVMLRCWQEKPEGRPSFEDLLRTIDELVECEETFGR

[2] = molecular target: Activated CDC42 kinase 1 ; TNK2 ; Q07912 (Homo sapiens, UniProt Q07912); details: DDA-MS residual binding; binder
Activated CDC42 kinase 1 ; TNK2 ; Q07912, sequence (Q07912 whole entry): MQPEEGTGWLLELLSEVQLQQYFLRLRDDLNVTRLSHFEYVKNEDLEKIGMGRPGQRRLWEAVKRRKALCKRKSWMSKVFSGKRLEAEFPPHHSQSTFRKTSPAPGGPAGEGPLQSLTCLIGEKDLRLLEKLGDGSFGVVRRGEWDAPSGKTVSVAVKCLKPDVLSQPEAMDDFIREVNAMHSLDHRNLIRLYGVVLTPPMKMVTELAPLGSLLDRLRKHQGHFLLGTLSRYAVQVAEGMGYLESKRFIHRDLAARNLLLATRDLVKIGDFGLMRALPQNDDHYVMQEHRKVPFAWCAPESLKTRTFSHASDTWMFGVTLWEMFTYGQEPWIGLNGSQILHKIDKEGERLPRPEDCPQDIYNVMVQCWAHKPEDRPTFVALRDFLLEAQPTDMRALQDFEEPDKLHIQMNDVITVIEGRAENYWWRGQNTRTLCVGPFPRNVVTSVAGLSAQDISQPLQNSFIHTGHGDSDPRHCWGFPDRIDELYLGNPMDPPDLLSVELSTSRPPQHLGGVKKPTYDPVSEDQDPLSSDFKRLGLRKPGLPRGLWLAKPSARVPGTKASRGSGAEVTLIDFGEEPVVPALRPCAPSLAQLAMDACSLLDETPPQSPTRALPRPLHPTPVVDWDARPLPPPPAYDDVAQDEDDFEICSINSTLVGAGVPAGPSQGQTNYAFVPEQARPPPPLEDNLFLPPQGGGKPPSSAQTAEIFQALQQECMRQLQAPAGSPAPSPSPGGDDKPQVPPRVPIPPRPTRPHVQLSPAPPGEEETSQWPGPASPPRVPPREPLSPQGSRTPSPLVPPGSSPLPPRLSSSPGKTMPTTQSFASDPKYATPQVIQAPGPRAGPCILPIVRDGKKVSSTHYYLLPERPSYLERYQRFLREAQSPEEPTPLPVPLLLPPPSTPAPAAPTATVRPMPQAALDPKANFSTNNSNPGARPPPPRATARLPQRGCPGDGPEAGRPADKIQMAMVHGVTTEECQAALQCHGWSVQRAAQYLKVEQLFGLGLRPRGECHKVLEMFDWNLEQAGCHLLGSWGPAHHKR

[3] = molecular target: T2, Ephrin type-B receptor 2 ; EPHB2 ; P29323 (Homo sapiens, UniProt P29323); details: DDA-MS residual binding; binder
T2 sequence (P29323 1-1055): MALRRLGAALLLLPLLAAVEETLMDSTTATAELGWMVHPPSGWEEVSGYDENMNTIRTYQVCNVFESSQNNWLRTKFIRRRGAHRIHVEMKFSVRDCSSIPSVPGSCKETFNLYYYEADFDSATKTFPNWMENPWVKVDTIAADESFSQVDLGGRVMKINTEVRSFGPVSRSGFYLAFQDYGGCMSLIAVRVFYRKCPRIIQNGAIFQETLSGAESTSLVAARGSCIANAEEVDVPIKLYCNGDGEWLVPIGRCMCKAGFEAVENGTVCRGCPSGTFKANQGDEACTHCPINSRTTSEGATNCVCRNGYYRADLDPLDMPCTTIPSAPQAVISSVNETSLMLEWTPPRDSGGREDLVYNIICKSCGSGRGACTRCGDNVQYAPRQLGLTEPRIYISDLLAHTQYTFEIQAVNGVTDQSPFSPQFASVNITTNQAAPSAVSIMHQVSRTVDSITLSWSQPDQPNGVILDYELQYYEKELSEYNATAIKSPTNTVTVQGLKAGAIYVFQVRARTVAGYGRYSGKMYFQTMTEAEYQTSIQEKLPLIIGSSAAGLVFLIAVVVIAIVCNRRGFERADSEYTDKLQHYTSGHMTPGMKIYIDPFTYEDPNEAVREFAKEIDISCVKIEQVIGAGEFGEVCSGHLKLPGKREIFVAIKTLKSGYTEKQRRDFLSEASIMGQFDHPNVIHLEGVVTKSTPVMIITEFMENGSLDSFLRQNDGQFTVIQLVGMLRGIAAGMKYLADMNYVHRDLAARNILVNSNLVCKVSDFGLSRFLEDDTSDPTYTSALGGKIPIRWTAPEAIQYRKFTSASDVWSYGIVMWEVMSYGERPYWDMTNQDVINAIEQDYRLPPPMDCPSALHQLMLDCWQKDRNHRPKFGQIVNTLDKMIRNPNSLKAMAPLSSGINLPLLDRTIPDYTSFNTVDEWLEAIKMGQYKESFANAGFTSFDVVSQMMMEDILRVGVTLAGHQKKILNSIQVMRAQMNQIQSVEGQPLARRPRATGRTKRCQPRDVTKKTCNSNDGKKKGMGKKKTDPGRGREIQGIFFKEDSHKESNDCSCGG

[4] = molecular target: Isoform 3 of Membrane-associated tyrosine- and threonine-specific cdc2 ; PKMYT1-3 ; Q99640-3 (Homo sapiens, UniProt Q99640); details: binder
Isoform 3 of Membrane-associated tyrosine- and threonine-specific cdc2 ; PKMYT1-3 ; Q99640-3, sequence (Q99640 whole entry, canonical isoform, one chain of several): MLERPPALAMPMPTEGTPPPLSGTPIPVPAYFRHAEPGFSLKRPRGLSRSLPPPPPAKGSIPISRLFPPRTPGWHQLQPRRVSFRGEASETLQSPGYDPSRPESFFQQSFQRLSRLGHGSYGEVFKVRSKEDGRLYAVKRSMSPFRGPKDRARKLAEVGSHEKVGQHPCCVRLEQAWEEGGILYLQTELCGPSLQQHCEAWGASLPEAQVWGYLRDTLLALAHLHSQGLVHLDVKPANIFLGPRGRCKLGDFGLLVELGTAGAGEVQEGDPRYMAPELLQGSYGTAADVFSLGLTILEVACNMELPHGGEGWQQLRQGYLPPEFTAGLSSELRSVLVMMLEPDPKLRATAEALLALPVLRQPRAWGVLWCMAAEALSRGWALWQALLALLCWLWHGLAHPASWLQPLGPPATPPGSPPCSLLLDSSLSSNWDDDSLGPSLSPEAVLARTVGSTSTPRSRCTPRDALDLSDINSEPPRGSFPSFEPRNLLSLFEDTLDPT

[5] = molecular target: T3, Dual specificity mitogen-activated protein kinase kinase 3 ; MAP2K3 ; P46734 (Homo sapiens, UniProt P46734); details: DIA-MS residual binding; binder
T3 sequence (P46734 1-347): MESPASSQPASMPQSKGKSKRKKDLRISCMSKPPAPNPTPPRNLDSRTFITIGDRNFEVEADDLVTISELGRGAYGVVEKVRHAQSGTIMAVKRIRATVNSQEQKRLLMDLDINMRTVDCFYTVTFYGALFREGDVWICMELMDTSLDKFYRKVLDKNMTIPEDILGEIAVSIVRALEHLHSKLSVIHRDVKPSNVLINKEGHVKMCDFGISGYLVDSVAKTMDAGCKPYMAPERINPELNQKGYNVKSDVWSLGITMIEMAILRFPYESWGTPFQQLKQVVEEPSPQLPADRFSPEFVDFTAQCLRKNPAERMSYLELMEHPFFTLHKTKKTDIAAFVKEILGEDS

[6] = molecular target: Ephrin type-A receptor 5 ; EPHA5 ; P54756 (Homo sapiens, UniProt P54756); details: DIA-MS residual binding; binder
Ephrin type-A receptor 5 ; EPHA5 ; P54756, sequence (P54756 whole entry): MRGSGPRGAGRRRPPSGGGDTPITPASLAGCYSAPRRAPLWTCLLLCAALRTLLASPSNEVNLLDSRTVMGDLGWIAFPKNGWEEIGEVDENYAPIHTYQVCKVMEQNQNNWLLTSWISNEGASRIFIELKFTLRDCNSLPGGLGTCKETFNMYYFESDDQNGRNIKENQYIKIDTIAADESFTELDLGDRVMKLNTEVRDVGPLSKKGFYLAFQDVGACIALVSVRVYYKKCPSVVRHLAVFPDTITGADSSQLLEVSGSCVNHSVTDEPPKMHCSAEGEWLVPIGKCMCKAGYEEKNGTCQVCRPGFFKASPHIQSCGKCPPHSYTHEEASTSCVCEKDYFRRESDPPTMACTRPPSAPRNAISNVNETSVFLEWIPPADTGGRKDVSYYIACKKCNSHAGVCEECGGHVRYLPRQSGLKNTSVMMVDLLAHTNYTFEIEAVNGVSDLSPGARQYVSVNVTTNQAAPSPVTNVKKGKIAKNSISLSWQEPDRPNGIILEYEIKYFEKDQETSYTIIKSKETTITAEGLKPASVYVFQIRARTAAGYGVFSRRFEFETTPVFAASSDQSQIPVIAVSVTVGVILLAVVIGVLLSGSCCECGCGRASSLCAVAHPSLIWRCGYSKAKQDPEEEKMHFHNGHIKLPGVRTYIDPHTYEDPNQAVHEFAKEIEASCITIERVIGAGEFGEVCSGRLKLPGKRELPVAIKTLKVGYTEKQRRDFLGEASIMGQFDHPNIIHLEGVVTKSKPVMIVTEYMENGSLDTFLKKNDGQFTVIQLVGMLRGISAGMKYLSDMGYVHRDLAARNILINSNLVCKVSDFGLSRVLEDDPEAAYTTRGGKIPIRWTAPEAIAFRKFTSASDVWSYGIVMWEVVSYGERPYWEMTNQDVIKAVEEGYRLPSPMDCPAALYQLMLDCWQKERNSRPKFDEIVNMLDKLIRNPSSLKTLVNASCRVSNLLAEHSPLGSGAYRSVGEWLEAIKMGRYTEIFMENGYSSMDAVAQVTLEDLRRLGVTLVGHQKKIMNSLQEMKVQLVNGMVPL

[7] = molecular target: MAP kinase-interacting serine/threonine-protein kinase 1 ; MKNK1 ; Q9BUB5 (Homo sapiens, UniProt Q9BUB5); details: binder
MAP kinase-interacting serine/threonine-protein kinase 1 ; MKNK1 ; Q9BUB5, sequence (Q9BUB5 whole entry, one chain of several): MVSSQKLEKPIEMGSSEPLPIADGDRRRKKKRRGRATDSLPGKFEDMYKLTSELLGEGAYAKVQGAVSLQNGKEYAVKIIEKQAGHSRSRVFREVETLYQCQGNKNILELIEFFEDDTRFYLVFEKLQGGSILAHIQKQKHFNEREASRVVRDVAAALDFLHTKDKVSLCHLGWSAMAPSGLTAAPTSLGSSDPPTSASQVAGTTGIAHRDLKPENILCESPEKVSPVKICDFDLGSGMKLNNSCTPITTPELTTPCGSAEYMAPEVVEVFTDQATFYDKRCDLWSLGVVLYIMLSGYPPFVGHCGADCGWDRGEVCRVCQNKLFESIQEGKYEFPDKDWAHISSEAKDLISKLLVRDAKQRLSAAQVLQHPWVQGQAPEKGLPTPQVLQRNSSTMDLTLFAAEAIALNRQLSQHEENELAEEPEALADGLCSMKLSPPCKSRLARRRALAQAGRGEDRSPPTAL

DDA-MS / % Intensity (30 µM/DMSO) [1]: 2.183%
DDA-MS / % Intensity (30 µM/DMSO) [2]: 3.313%
DDA-MS / % Intensity (30 µM/DMSO) [3]: 7.218%
DIA-MS / % Intensity (30 µM/DMSO) [4]: 30.34%
DIA-MS / % Intensity (30 µM/DMSO) [5]: 55.82%
DIA-MS / % Intensity (30 µM/DMSO) [6]: 0.4604%
DIA-MS / % Intensity (30 µM/DMSO) [7]: 27.84%
SMILES: Cc1nc(Nc2ncc(C(=O)Nc3c(C)cccc3Cl)s2)cc(N2CCN(CCO)CC2)n1 [dasatinib]
